Assay results published in patent US7408024B2, “Somatostatin antagonists” (The Administrators of the Tulane Educational Fund, priority 2001, dated 2008).
Where a SMILES comes first, the peptide text is derived from it. Bridges are numbered along the chain shown (N, C = ends). [ ]: non-standard residue; d: D form. Phe(4-Cl) = N[C@@H](Cc1ccc(Cl)cc1)C(=O)O; dNMeW = CN[C@H](Cc1c[nH]c2ccccc12)C(=O)O; Dip = N[C@H](C(=O)O)C(c1ccccc1)c1ccccc1; 2Nal = N[C@@H](Cc1ccc2ccccc2c1)C(=O)O; NMeT = CN[C@H](C(=O)O)[C@@H](C)O; 3Pal = N[C@@H](Cc1cccnc1)C(=O)O; NMeK = CN[C@@H](CCCCN)C(=O)O; NMeC = CN[C@@H](CS)C(=O)O; dNMeC = CN[C@H](CS)C(=O)O

How the values were obtained:
hsst2 = target: T1, hsst2 (Homo sapiens, UniProt P30874); experiment: Radioligand binding, cloned human sst2 receptor (CHO-K1 membranes); conditions: [125I]MK-678, CHO-K1 cell membranes; single values = one binding experiment; read-out: K1 ± SEM hsst2
T1 construct: each containing the entire coding region of the full-length receptors; expressed in transfected cells
Text: (§1) The genomic clones containing the human somatostatin receptors (hsstr1-5) (Yamada, Y., et al. al., Proc. Natl. Acad. Sci. USA. 1992, 89, 251-255; Yasuda, K., et al., J. Biol. Chem. 1992, 267, 20422-20428; Yamada, Y., et al., Mol. Pharmacol. 1992, 42, 2136-2142; Rohrer, L., et al., Proc. Natl. Acad. Sci. USA. 1993, 90, 4196-4200.), were kindly provided by Dr. Graeme I. Bell (University of Chicago). The hsstr1, hsstr2, hsstr3, hsstr4 and hsstr5 cDNAs were isolated as a 1.5-kb PstI-XmnI fragment, 1.7-kb BamHI-HindIII fragment, 2.0-kb NcoI-HindIII fragment, 1.4-kb NheI-NdeI fragment, and a 1.2-kb HindIII-XbaI fragment, respectively, each containing the entire coding region of the full-length receptors. These fragments were independently subdloned into the corresponding restriction endonuclease sites in the mammalian expression vector pCMV5, downstream from the human cytomegalovirus (CMV) promoter, to produce the expression plasmids pCMV5/hsstr1, pCMV5/hsstr2, pCMV5/hsstr3, pCMV5/hsstr4 and pCMV5/hsstr5. For transfection into CHO-K1 cells, a plasmid, pRSV-neo (American Type Culture Collection, Rockville, Md.), carrying the neomycin mammalian cell selectable marker was added.
(§2) Transfections were performed by the calcium phosphate method. CHO-K1 cells are maintained in α-minimum essential medium (α-MEM; Gibco) supplemented with 10% fetal calf serum and transfected with each of the expression plasmids using calcium phosphate precipitation. Clones that had inherited the expression plasmid were selected in α-MEM supplemented with 500 μg mL^−1 of geneticin (G418; Gibco). Independent CHO-K1 clones were picked by glass-ring cloning and expanded in culture in the selective media. Membranes were prepared from the isolated clones and hsstr expression was initially assessed for binding with [^125I]Tyr^11-SRIF and [^125]IMK-678 (for sstr2).
(§3) Cell membranes of the 5 receptor types were obtained from homogenates (Polytron setting 6, 15 sec) of the corresponding CHO-K1 cells, in ice-cold Tris-HCl (50 mM) and centrifuged (39000 g, 10 min×2), with an intermediate resuspension in fresh buffer. The final pellets are resuspended in Tris-HCl (10 mM) for assay. Aliquots of the membranes are incubated (30 min at 37° C.) with 0.05 nM [^125I]Tyr^11-SRIF (types 1,3,4,5) or [^125I]MK-678 (type 2) in 50 mM HEPES (pH 7.4) containing BSA (10 mg mL^−1); MgCl2 (5 mM), Trasylol (200 kIU mL^−1), bacitracin (0.02 mg mL^−1), and phenylmethanesulfonyl fluoride (0.02 mg mL^−1). The final assay volume is 0.3 mL and incubations are terminated by rapid filtration through GF/C filters pre-soaked in 0.3% poly(ethylenimine) using a Brandel rapid filtration module. Each tube and filter is then washed with aliquots of cold buffer (3×5 mL).
(§4) Specific binding is. defined as the total radioligand bound minus that bound in the presence of 1.0 μM SRIF.

hsst3 = target: T2, hsst3 (Homo sapiens, UniProt P32745); experiment: Radioligand binding, cloned human sst3 receptor (CHO-K1 membranes); conditions: [125I]Tyr11-SRIF, CHO-K1 cell membranes; single values = one binding experiment; read-out: K1 ± SEM hsst3
T2 construct: each containing the entire coding region of the full-length receptors; expressed in transfected cells
Text: as §1, §2, §3, §4

hsst1 = target: T3, hsst1 (Homo sapiens, UniProt P30872); experiment: Radioligand binding, cloned human sst1 receptor (CHO-K1 membranes); conditions: [125I]Tyr11-SRIF, CHO-K1 cell membranes; single values = one binding experiment; read-out: K1 ± SEM hsst1
T3 construct: each containing the entire coding region of the full-length receptors; expressed in transfected cells
Text: as §1, §2, §3, §4

hsst4 = target: T4, hsst4 (Homo sapiens, UniProt P31391); experiment: Radioligand binding, cloned human sst4 receptor (CHO-K1 membranes); conditions: [125I]Tyr11-SRIF, CHO-K1 cell membranes; single values = one binding experiment; read-out: K1 ± SEM hsst4
T4 construct: each containing the entire coding region of the full-length receptors; expressed in transfected cells
Text: as §1, §2, §3, §4

hsst5 = target: T5, hsst5 (Homo sapiens, UniProt P35346); experiment: Radioligand binding, cloned human sst5 receptor (CHO-K1 membranes); conditions: [125I]Tyr11-SRIF, CHO-K1 cell membranes; single values = one binding experiment; read-out: K1 ± SEM hsst5
T5 construct: each containing the entire coding region of the full-length receptors; expressed in transfected cells
Text: as §1, §2, §3, §4

[1] = tested on: SRIF inhibition of GH release in rat anterior pituitary cells; format: cell-based
Procedure: Anterior pituitaries from adult male rats were collected and dispersed by a previously described trypsin/DNase method. (Murphy, W. A.; Taylor, J.; Moreau, J.-P. and Coy, D. […] Sigma) and nystatin (10,000 U mL^−1; Gibco). The cells were randomly plated at a density of approximately 200,000 cells/well (Costar cluster 24; Rochester Scientific Co., Rochester, N.Y.). The plated cells were maintained in the above Dulbecco's medium in a humidified atmosphere of 95% air/5% CO2 at 37° C. for 4-6 days. In preparation for a hormone challenge, the cells were washed with medium 199 (Gibco, 3×1 mL). […] Sigma Chemical Co.). […] After 3 h incubation in an air/carbon dioxide atmosphere (95/5%, 3 h at 37° C.), the medium was removed and stored at −20° C. until assayed for hormone content. Growth hormone in media was measured by a standard double antibody RIA using components generously supplied by Dr. A. F. Parlow at the National Hormone and Pituitary Program (NHHP) Torrance, Calif.

T3 sequence (P30872 whole entry): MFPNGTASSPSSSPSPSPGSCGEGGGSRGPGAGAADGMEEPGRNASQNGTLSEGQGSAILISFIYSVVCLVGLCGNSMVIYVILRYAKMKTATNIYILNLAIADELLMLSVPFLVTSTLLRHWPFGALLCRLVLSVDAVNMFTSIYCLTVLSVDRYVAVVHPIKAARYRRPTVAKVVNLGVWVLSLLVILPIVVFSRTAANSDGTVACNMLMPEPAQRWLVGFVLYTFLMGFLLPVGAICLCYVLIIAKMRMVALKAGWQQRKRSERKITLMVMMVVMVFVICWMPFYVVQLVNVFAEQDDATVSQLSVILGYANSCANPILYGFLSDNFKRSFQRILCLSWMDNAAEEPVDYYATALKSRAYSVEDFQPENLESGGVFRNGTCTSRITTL
T2 sequence (P32745 whole entry): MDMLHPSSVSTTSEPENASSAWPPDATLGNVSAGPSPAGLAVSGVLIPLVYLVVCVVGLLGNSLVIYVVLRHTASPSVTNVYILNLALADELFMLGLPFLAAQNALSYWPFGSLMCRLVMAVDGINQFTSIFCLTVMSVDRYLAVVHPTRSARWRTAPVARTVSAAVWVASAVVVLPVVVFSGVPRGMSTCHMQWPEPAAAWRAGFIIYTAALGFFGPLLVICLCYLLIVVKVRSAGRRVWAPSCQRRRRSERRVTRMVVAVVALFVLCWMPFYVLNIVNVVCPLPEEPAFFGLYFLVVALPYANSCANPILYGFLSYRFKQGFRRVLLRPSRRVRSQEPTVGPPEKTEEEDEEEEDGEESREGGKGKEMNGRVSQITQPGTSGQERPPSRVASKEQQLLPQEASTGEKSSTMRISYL
T1 sequence (P30874 whole entry): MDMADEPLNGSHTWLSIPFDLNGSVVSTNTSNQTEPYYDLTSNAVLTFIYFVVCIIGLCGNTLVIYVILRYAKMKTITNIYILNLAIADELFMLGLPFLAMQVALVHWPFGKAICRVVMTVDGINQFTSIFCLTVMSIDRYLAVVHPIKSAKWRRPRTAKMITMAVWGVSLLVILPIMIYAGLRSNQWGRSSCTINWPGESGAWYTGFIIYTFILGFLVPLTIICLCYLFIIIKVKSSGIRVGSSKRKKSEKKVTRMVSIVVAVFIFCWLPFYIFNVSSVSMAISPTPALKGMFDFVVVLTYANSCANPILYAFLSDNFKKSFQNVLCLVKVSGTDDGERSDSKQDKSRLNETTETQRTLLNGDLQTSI
T5 sequence (P35346 whole entry): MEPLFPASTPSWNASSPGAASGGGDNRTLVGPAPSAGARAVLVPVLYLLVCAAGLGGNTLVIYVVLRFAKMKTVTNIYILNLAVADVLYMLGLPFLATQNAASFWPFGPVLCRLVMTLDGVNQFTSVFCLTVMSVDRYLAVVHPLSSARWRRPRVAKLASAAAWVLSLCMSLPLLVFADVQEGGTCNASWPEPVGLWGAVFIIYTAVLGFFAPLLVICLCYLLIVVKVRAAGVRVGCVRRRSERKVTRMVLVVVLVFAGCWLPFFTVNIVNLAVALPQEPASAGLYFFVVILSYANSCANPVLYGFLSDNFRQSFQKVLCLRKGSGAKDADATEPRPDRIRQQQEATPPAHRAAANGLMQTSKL
T4 sequence (P31391 whole entry): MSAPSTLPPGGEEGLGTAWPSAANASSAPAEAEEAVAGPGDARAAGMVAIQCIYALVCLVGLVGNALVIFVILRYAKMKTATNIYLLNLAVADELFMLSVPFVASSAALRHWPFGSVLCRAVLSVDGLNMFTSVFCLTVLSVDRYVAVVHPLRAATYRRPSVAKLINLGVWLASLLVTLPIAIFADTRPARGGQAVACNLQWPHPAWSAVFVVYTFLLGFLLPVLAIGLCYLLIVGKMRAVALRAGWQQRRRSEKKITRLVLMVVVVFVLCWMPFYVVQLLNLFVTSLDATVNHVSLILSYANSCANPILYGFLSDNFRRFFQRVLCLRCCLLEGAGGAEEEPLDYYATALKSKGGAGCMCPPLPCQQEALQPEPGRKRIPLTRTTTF

Row | SMILES | Ki (hsst2) | Ki (hsst3) | Ki (hsst1) | Ki (hsst4) | Ki (hsst5) | IC50 [1]
1 | CNC(=O)[C@H](Cc1ccc2ccccc2c1)NC(=O)[C@@H]1CSSC[C@@H](N(C)C(=O)[C@@H](N)Cc2ccc(Cl)cc2)C(=O)N[C@@H](Cc2cccnc2)C(=O)N[C@H](Cc2c[nH]c3ccccc23)C(=O)N[C@@H](CCCCN)C(=O)N[C@@H]([C@@H](C)O)C(=O)N1 [Peptide 2, Cpa-cyclo(NmeDCys-3-Pal-DTrp-Lys-Thr-Cys)-2-Nal-NHMe] (H-[Phe(4-Cl)][dNMeC][3Pal][dW]KTC[2Nal]-NHMe; disulfide 2-7) | 89 ± 8 nM | 576 ± 47 nM | 1000 nM | 1000 nM | 106 ± 36 nM | 
2 | C[C@@H](O)[C@@H]1NC(=O)[C@H](CCCCN)NC(=O)[C@@H](Cc2c[nH]c3ccccc23)NC(=O)[C@H](Cc2cccnc2)N(C)C(=O)[C@H](NC(=O)[C@@H](N)Cc2ccc(Cl)cc2)CSSC[C@@H](C(=O)N[C@@H](Cc2ccc3ccccc3c2)C(N)=O)NC1=O [Peptide 3, Cpa-cyclo(DCys-Nme3-Pal-DTrp-Lys-Thr-Cys)-2-Nal-NH2] | 189 ± 35 nM | 450 ± 132 nM |  |  |  | 
3 | C[C@@H](O)[C@@H]1NC(=O)[C@H](CCCCN)NC(=O)[C@@H](Cc2c[nH]c3ccccc23)N(C)C(=O)[C@H](Cc2cccnc2)NC(=O)[C@H](NC(=O)[C@@H](N)Cc2ccc(Cl)cc2)CSSC[C@@H](C(=O)N[C@@H](Cc2ccc3ccccc3c2)C(N)=O)NC1=O [Peptide 4, Cpa-cyclo(DCys-3-Pal-NMeDTrp-Lys-Thr-Cys)-2-Nal-NH2] (H-[Phe(4-Cl)][dC][3Pal][dNMeW]KTC[2Nal]-NH2; disulfide 2-7) | 51.8 ± 2.6 nM | 390 ± 114 nM |  |  | 93 ± 17.7 nM | 
4 | C[C@@H](O)[C@@H]1NC(=O)[C@H](CCCCN)N(C)C(=O)[C@@H](Cc2c[nH]c3ccccc23)NC(=O)[C@H](Cc2cccnc2)NC(=O)[C@H](NC(=O)[C@@H](N)Cc2ccc(Cl)cc2)CSSC[C@@H](C(=O)N[C@@H](Cc2ccc3ccccc3c2)C(N)=O)NC1=O [Peptide 5, Cpa-cyclo(DCys-3-Pal-DTrp-NMeLys-Thr-Cys)-2-Nal-NH2] (H-[Phe(4-Cl)][dC][3Pal][dW][NMeK]TC[2Nal]-NH2; disulfide 2-7) | 17.1 ± 5.5 nM | 66 ± 5.8 nM |  |  | 5.98 ± 0.91 nM | 
5 | C[C@@H](O)[C@H]1C(=O)N[C@H](C(=O)N[C@@H](Cc2ccc3ccccc3c2)C(N)=O)CSSC[C@@H](NC(=O)[C@@H](N)Cc2ccc(Cl)cc2)C(=O)N[C@@H](Cc2cccnc2)C(=O)N[C@H](Cc2c[nH]c3ccccc23)C(=O)N[C@@H](CCCCN)C(=O)N1C [Peptide 6, Cpa-cyclo(DCys-3-Pal-DTrp-Lys-NMeThr-Cys)-2-Nal-NH2] (H-[Phe(4-Cl)][dC][3Pal][dW]K[NMeT]C[2Nal]-NH2; disulfide 2-7) | 1000 nM | 315 ± 12.5 nM | 395 ± 202 nM | 1000 nM |  | 
6 | C[C@@H](O)[C@@H]1NC(=O)[C@H](CCCCN)NC(=O)[C@@H](Cc2c[nH]c3ccccc23)NC(=O)[C@H](Cc2cccnc2)NC(=O)[C@H](NC(=O)[C@@H](N)Cc2ccc(Cl)cc2)CSSC[C@@H](C(=O)N[C@@H](Cc2ccc3ccccc3c2)C(N)=O)N(C)C1=O [Peptide 7, Cpa-cyclo(DCys-3-Pal-DTrp-Lys-Thr-NmeCys)-2-Nal-NH2] (H-[Phe(4-Cl)][dC][3Pal][dW]KT[NMeC][2Nal]-NH2; disulfide 2-7) | 810 nM | 68.7 ± 4.7 nM |  | 575 nM |  | 
7 | C[C@@H](O)[C@@H]1NC(=O)[C@H](CCCCN)NC(=O)[C@@H](Cc2c[nH]c3ccccc23)NC(=O)[C@H](Cc2cccnc2)NC(=O)[C@H](NC(=O)[C@@H](N)Cc2ccc(Cl)cc2)CSSC[C@@H](C(=O)N[C@@H](Cc2ccc3ccccc3c2)C(N)=O)NC1=O [Peptide 9, Cpa-cyclo(DCys-3-Pal-DTrp-Lys-Thr-Cys)-Nal-NH2] | 12.1 ± 1.9 nM | 38.2 ± 2.4 nM |  | 1000 nM |  | 
8 | CNC(=O)[C@@H](NC(=O)[C@@H]1CSSC[C@@H](N(C)C(=O)[C@@H](N)Cc2ccc(Cl)cc2)C(=O)N[C@@H](Cc2cccnc2)C(=O)N[C@H](Cc2c[nH]c3ccccc23)C(=O)N[C@@H](CCCCN)C(=O)N[C@@H]([C@@H](C)O)C(=O)N1)C(c1ccccc1)c1ccccc1 [Peptide 10, Cpa-cyclo(NMeDCys-3-Pal-DTrp-Lys-Thr-Cys)-Dip-NHMe] (H-[Phe(4-Cl)][dNMeC][3Pal][dW]KTC[Dip]-NHMe; disulfide 2-7) | 117 ± 24.6 nM | 584 ± 305 nM | 1000 nM | 1000 nM | 766 ± 110 nM | 
9 | C[C@@H](O)[C@@H]1NC(=O)[C@H](CCCCN)N(C)C(=O)[C@@H](Cc2c[nH]c3ccccc23)NC(=O)[C@H](Cc2ccc(O)cc2)NC(=O)[C@H](NC(=O)[C@@H](N)Cc2ccc(Cl)cc2)CSSC[C@@H](C(=O)N[C@@H](Cc2ccc3ccccc3c2)C(N)=O)NC1=O [Peptide 12, Cpa-cyclo(DCys-Tyr-DTrp-NMeLys-Thr-Cys)-2-Nal-NH2] (H-[Phe(4-Cl)][dC]Y[dW][NMeK]TC[2Nal]-NH2; disulfide 2-7) | 5.51 ± 1.85 nM | 115 ± 16.9 nM | 1000 nM | 1000 nM |  | 0.53 ± 0.17 nM
10 | C[C@@H](O)[C@@H]1NC(=O)[C@H](CCCCN)N(C)C(=O)[C@@H](Cc2c[nH]c3ccccc23)NC(=O)[C@H](Cc2cccnc2)NC(=O)[C@H](NC(=O)[C@@H](N)Cc2ccc(Cl)cc2)CSSC[C@@H](C(=O)N[C@H](Cc2c[nH]c3ccccc23)C(N)=O)NC1=O [Peptide 14, Cpa-cyclo(DCys-3-Pal-DTrp-NMeLys-Thr-Cys)-DTrp-NH2] (H-[Phe(4-Cl)][dC][3Pal][dW][NMeK]TC[dW]-NH2; disulfide 2-7) | 5.45 ± 0.3 nM | 91.4 ± 11.9 nM |  |  |  | 
11 | C[C@@H](O)[C@@H]1NC(=O)[C@H](CCCCN)N(C)C(=O)[C@@H](Cc2c[nH]c3ccccc23)NC(=O)[C@H](Cc2cccnc2)NC(=O)[C@H](NC(=O)[C@@H](N)Cc2ccc3ccccc3c2)CSSC[C@@H](C(=O)N[C@H](Cc2c[nH]c3ccccc23)C(N)=O)NC1=O [Peptide 15, Nal-cyclo(DCys-3-Pal-DTrp-NMeLys-Thr-Cys)-DTrp-NH2] (H-[2Nal][dC][3Pal][dW][NMeK]TC[dW]-NH2; disulfide 2-7) | 27.3 ± 1.45 nM |  | 1000 nM | 1000 nM | 176 ± 65.1 nM | 
12 | C[C@@H](O)[C@@H]1NC(=O)[C@H](CCCCN)N(C)C(=O)[C@@H](Cc2c[nH]c3ccccc23)NC(=O)[C@H](Cc2cccnc2)NC(=O)[C@H](NC(=O)[C@@H](N)Cc2cccnc2)CSSC[C@@H](C(=O)N[C@H](Cc2c[nH]c3ccccc23)C(N)=O)NC1=O [Peptide 16, 3-Pal-cyclo(DCys-3-Pal-DTrp-NMeLys-Thr-Cys)-DTrp-NH2] (H-[3Pal][dC][3Pal][dW][NMeK]TC[dW]-NH2; disulfide 2-7) | 24.7 ± 1.61 nM | 537 ± 44.8 nM |  |  | 313 ± 4.1 nM | 
